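Each compound was tested at five concentrations against cells in 96-well plates for 48 hours. TGI: total growth inhibition.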
What was measured:
Assay in all cases: growth of human tumour cells (NCI), 48 h
[1] = system: 786-0 renal
[2] = system: HS 578T breast
[3] = system: IGROV1 ovarian
[4] = system: K-562 leukemia
[5] = system: KM12 colon
[6] = system: NCI-H522 lung
[7] = system: OVCAR-5 ovarian
[8] = system: SF-539 CNS
[9] = system: SK-MEL-2 melanoma
[10] = system: UO-31 renal

Which TGI [1] does the source give for CC1(C)N=C(C(N)=O)c2[nH]cnc2N1 here?
The TGI was over 100 µM.

What about the TGI [2] of the same compound?
Its TGI is over 100 µM.

What about the TGI [3] of the same compound?
Its TGI is over 100 µM.

And the TGI [4]?
The TGI was over 100 µM.

What about the TGI [5] of the same compound?
The TGI was over 100 µM.

And the TGI [6]?
The TGI was over 100 µM.

And the TGI [7]?
Its TGI is over 100 µM.

What about the TGI [8] of the same compound?
The TGI was over 100 µM.

And the TGI [9]?
The TGI was over 100 µM.

Which TGI [1] does the source give for C[N+]1(C)CCCC(C#N)(c2ccccc2)CC1 (stereo not drawn) here?
Its TGI is over 100 µM.

And the TGI [2]?
The TGI was over 100 µM.

And the TGI [3]?
Its TGI is over 100 µM.

And the TGI [4]?
Its TGI is over 100 µM.

What about the TGI [5] of the same compound?
The TGI was over 100 µM.

And the TGI [7]?
The TGI was over 100 µM.

What about the TGI [10] of the same compound?
The TGI was over 100 µM.

For CN(C)C(=O)C(F)(F)C(c1ccccc1Br)C1C(=O)N(C)C(=O)N(C)C1=O (stereo not drawn), which TGI [1] is on record?
Its TGI is over 100 µM.

And the TGI [4]?
Its TGI is over 100 µM.

And the TGI [5]?
The TGI was over 100 µM.

What about the TGI [7] of the same compound?
Its TGI is over 100 µM.

What about the TGI [9] of the same compound?
The TGI was over 100 µM.

And the TGI [10]?
Its TGI is over 100 µM.

With C=CCOCC1C2CCC3(OCCO3)C21 (stereo not drawn) as the compound, how does the TGI [1] read?
The TGI was over 100 µM.

And the TGI [3]?
Its TGI is over 100 µM.

And the TGI [4]?
The TGI was over 100 µM.

What about the TGI [5] of the same compound?
The TGI was over 100 µM.

And the TGI [6]?
Its TGI is over 100 µM.

And the TGI [7]?
Its TGI is over 100 µM.

What about the TGI [8] of the same compound?
The TGI was over 100 µM.

What about the TGI [9] of the same compound?
Its TGI is over 100 µM.

And the TGI [10]?
Its TGI is 75.2 µM.

For C/C(=C\C(=O)Nc1ccc2n[nH]nc2c1)Nc1ccc2n[nH]nc2c1, which TGI [1] is on record?
Its TGI is over 100 µM.

What about the TGI [3] of the same compound?
Its TGI is over 100 µM.

What about the TGI [4] of the same compound?
Its TGI is over 100 µM.

What about the TGI [5] of the same compound?
The TGI was over 100 µM.

What about the TGI [6] of the same compound?
Its TGI is over 100 µM.

And the TGI [7]?
Its TGI is over 100 µM.

And the TGI [8]?
Its TGI is over 100 µM.

And the TGI [10]?
Its TGI is over 100 µM.

c1ccc(C(Oc2noc3ccccc23)c2ccccc2)cc1 was tested. Which TGI [1] did it give?
The TGI was over 100 µM.

And the TGI [2]?
Its TGI is over 100 µM.

What about the TGI [3] of the same compound?
Its TGI is over 100 µM.

What about the TGI [4] of the same compound?
Its TGI is over 100 µM.

What about the TGI [5] of the same compound?
The TGI was over 100 µM.

What about the TGI [6] of the same compound?
Its TGI is over 100 µM.

And the TGI [7]?
Its TGI is over 100 µM.

And the TGI [10]?
Its TGI is over 100 µM.

How did the TGI [1] turn out when COc1ccc(OC)c2c(C(C)=O)cccc12 was run?
The TGI was over 100 µM.

And the TGI [2]?
Its TGI is over 100 µM.

What about the TGI [3] of the same compound?
Its TGI is over 100 µM.

What about the TGI [4] of the same compound?
The TGI was over 100 µM.

And the TGI [5]?
The TGI was over 100 µM.

And the TGI [6]?
The TGI was over 100 µM.

What about the TGI [7] of the same compound?
The TGI was over 100 µM.

What about the TGI [8] of the same compound?
Its TGI is over 100 µM.

And the TGI [10]?
The TGI was over 100 µM.

For CCOC(=O)C(C)c1nc2cc(F)c(F)cc2[nH]c1=O (stereo not drawn), which TGI [1] is on record?
The TGI was over 100 µM.

And the TGI [2]?
Its TGI is over 100 µM.

What about the TGI [4] of the same compound?
Its TGI is over 100 µM.

And the TGI [5]?
The TGI was over 100 µM.

And the TGI [7]?
The TGI was over 100 µM.

And the TGI [8]?
Its TGI is over 100 µM.

And the TGI [9]?
Its TGI is over 100 µM.

What about the TGI [10] of the same compound?
Its TGI is over 100 µM.

How did the TGI [1] turn out when ClC1=NSSC1(Cl)Cl was run?
Its TGI is 59.3 µM.

What about the TGI [3] of the same compound?
Its TGI is over 100 µM.

And the TGI [4]?
Its TGI is 24 µM.

And the TGI [5]?
Its TGI is over 100 µM.

What about the TGI [6] of the same compound?
Its TGI is 38.8 µM.

And the TGI [7]?
Its TGI is 85 µM.

And the TGI [8]?
Its TGI is over 100 µM.

And the TGI [9]?
The TGI was over 100 µM.

What about the TGI [10] of the same compound?
Its TGI is 78 µM.

COc1cc2c(c(OC)c1OC)C(=O)c1c(O)cc(C)c(OC)c1C2=O was tested. Which TGI [1] did it give?
Its TGI is over 100 µM.

And the TGI [2]?
Its TGI is 70.1 µM.

What about the TGI [3] of the same compound?
The TGI was over 100 µM.

And the TGI [5]?
Its TGI is over 100 µM.

And the TGI [6]?
Its TGI is over 100 µM.

And the TGI [7]?
Its TGI is over 100 µM.

And the TGI [8]?
Its TGI is over 100 µM.

What about the TGI [9] of the same compound?
The TGI was over 100 µM.

What about the TGI [10] of the same compound?
Its TGI is over 100 µM.

For Clc1cc(N/N=C(\c2ccccc2)c2ccccn2)ncn1, which TGI [2] is on record?
Its TGI is over 100 µM.

And the TGI [3]?
Its TGI is 89.9 µM.

And the TGI [4]?
Its TGI is over 100 µM.

And the TGI [5]?
Its TGI is over 100 µM.

And the TGI [7]?
Its TGI is over 100 µM.

And the TGI [8]?
Its TGI is 3.26 µM.

What about the TGI [9] of the same compound?
The TGI was over 100 µM.

With S=C(NCc1ccccn1)N/N=C/c1ccccn1 as the compound, how does the TGI [1] read?
The TGI was over 86.1 µM.

What about the TGI [2] of the same compound?
The TGI was 70.1 µM.

And the TGI [4]?
The TGI was under 0.0108 µM.

What about the TGI [5] of the same compound?
The TGI was over 100 µM.

And the TGI [6]?
The TGI was 0.0713 µM.

And the TGI [7]?
The TGI was over 100 µM.

What about the TGI [8] of the same compound?
The TGI was 0.396 µM.

What about the TGI [9] of the same compound?
Its TGI is 0.876 µM.

And the TGI [10]?
Its TGI is 32.6 µM.
